Measured values from patent publication US8785486B2, “Imidazo[1,2-A]pyridine derivatives and their use as positive allosteric modulators of mGluR2 receptors” (Janssen Pharmaceuticals, Inc., priority 2007, dated 2014).

Molecular target: T1, human mGluR2 receptor (Homo sapiens, UniProt Q14416)
T1 construct: expressed in transfected cells; host or cells: CHO cells
Assay: [35S]GTPγS binding assay (PAM assay) using membranes from cells transfected with the human mGluR2 receptor
Assay type: biochemical
Conditions: membranes of CHO cells with human mGluR2; glutamate at predetermined EC25 concentration; averages of duplicate values of 11-concentration response curves
Experimental: The [^35S]GTPγS binding assay is a functional membrane-based assay used to study G-protein coupled receptor (GPCR) function whereby incorporation of a non-hydrolysable form of GTP, [^35S]GTPγS (guanosine 5′-triphosphate, labelled with […] ^35S), is measured.
CHO-cells were cultured to pre-confluence and stimulated with 5 mM butyrate for 24 hours, prior to washing in PBS, and then collection by scraping in homogenisation buffer (50 mM Tris-HCl buffer, pH 7.4, 4° C.). Cell lysates were homogenized briefly (15 s) using an ultra-turrax homogenizer. The homogenate was centrifuged at 23 500×g for 10 minutes and the supernatant discarded. The pellet was resuspended in 5 mM Tris-HCl, pH 7.4 and centrifuged again (30 000×g, 20 min, 4° C.). The final pellet was resuspended in 50 mM HEPES, pH 7.4 and stored at −80° C. in appropriate aliquots before use. Protein concentration was determined by the Bradford method (Bio-Rad, USA) with bovine serum albumin as standard.
Measurement of mGluR2 positive allosteric modulatory activity of test compounds in membranes containing human mGluR2 was performed using frozen membranes that were thawed and briefly homogenised prior to pre-incubation in 96-well microplates (15 μg/assay well, 30 minutes, 30° C.) in assay buffer (50 mM HEPES pH 7.4, 100 mM NaCl, 3 mM MgCl2, 50 μM GDP, 10 μg/ml saponin,) with increasing concentrations of positive allosteric modulator (from 0.3 nM to 50 μM) and either a minimal pre-determined concentration of glutamate (PAM assay), or no added glutamate. […] After addition of [^35S]GTPγS (0.1 nM, f.c.) to achieve a total reaction volume of 200 μl, microplates were shaken briefly and further incubated to allow [^35S]GTPγS incorporation on activation (30 minutes, 30° C.). The reaction was stopped by rapid vacuum filtration over glass-fibre filter plates (Unifilter 96-well GF/B filter plates, Perkin-Elmer, Downers Grove, USA) microplate using a 96-well plate cell harvester (Filtermate, Perkin-Elmer, USA), and then by washing three times with 300 μl of ice-cold wash buffer (Na2PO4.2H2O 10 mM, NaH2PO4.H2O 10 mM, pH=7.4). Filters were then air-dried, and 40 μl of liquid scintillation cocktail (Microscint-O) was added to each well, and membrane-bound [^35S]GTPγS was measured in a 96-well scintillation plate reader (Top-Count, Perkin-Elmer, USA). Non-specific [^35S]GTPγS binding is determined in the presence of cold 10 μM GTP. Each curve was performed at least once using duplicate sample per data point and at 11 concentrations.
The concentration-response curves of representative compounds of the present invention in the presence of added EC25 of mGluR2 agonist glutamate to determine positive allosteric modulation (PAM), were generated using the Prism GraphPad software (Graph Pad Inc, San Diego, USA). The curves were fitted to a four-parameter logistic equation (Y=Bottom+(Top-Bottom)/(1+10^((Log EC50−X)*Hill Slope) allowing determination of EC50 values. The EC50 is the concentration of a compound that causes a half-maximal potentiation of the glutamate response. This is calculated by subtracting the maximal responses of glutamate in presence of a fully saturating concentration of a positive allosteric modulator from the response of glutamate in absence of a positive allosteric modulator. The concentration producing the half-maximal effect is then calculated as EC50

T1 sequence (Q14416 19-872): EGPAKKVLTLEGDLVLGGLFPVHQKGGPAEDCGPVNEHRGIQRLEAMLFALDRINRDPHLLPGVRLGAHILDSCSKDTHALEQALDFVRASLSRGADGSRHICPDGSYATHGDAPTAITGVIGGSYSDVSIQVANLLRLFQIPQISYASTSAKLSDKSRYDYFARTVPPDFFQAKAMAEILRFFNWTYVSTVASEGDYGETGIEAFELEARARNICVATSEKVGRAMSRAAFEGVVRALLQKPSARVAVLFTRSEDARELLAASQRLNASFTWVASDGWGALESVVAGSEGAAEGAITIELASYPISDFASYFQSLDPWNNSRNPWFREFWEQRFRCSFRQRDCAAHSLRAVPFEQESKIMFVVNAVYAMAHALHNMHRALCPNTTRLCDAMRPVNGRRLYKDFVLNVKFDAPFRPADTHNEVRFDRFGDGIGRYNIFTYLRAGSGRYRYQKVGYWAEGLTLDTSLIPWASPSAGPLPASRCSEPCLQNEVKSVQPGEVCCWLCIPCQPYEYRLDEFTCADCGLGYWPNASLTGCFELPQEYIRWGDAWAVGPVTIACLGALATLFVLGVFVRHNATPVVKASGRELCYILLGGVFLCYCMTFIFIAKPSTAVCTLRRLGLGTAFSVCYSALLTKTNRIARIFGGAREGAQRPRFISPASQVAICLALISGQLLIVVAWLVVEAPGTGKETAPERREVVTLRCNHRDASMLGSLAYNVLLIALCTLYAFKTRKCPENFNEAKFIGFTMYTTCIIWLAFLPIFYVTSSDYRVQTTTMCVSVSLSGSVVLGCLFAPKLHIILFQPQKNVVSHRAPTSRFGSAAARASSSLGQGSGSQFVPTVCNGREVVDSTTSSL

| Structure (SMILES) | GTPγS - hR2 PAM pEC50 |
| --- | --- |
| N#Cc1c(N2CCN(c3ncccn3)CC2)ccn2c(CCC3CC3)cnc12 [Example 55] | 5.96 |
| CC(C)(C)c1ccc(-c2ccn3c(CC(F)(F)F)cnc3c2C#N)cc1 [Example 88] | 6.35 |

Second part, the molecule after the results:

| GTPγS - hR2 PAM pEC50 | Structure (SMILES) |
| --- | --- |
| 6.85 | N#Cc1c(-c2ccc(NC3CC3)c(Cl)c2)ccn2c(CC(F)(F)F)cnc12 [Example 105, 7-(3-Chloro-4-cyclopropylamino-phenyl)-3-(2,2,2-trifluoro-ethyl)-imidazo[1,2-a]pyridine-8-carbonitrile] |
| 6.63 | N#Cc1c(-c2ccc(N3CCCCC3)cc2)ccn2c(CC(F)(F)F)cnc12 [Example 107] |
| 5.67 | N#Cc1c(-c2ccc(N3CCOCC3)c(Cl)c2)ccn2c(CC(F)(F)F)cnc12 [Example 110] |
| 6.80 | N#Cc1c(-c2ccc(OCc3ccccc3)cc2)ccn2c(CC(F)(F)F)cnc12 [Example 120] |

Same assay, conditions: membranes of CHO cells with human mGluR2; glutamate at predetermined EC25 concentration; averages of duplicate values of 11-concentration response curves; read-out: GTPγS - hR2 PAM pEC50 (converted)

| Structure (SMILES) | EC50 [nM] |
| --- | --- |
| N#Cc1c(CN2CCC(c3ccccc3)CC2)ccn2c(-c3ccccc3)cnc12 [Example 1, 3-Phenyl-7-(4-phenyl-piperidin-1-ylmethyl)-imidazo[1,2-a]pyridine-8-carbonitrile] | 513 |
| N#Cc1c(N2CCC(c3ccccc3)CC2)ccn2c(CC(F)(F)F)cnc12 [Example 3, 7-(4-Phenyl-piperidin-1-yl)-3-(2,2,2-trifluoro-ethyl)-imidazo[1,2-a]pyridine-8-carbonitrile] | 123 |
| Cc1cc(Oc2ccc(-c3ccn4c(CC(F)(F)F)cnc4c3C#N)c(F)c2)ccn1 [Example 4, 7-[2-Fluoro-4-(2-methyl-pyridin-4-yloxy)-phenyl]-3-(2,2,2-trifluoro-ethyl)-imidazo[1,2-a]pyridine-8-carbonitrile] | 692 |
| N#Cc1c(N2CCC(c3ccccc3)CC2)ccn2c(Cc3ccccc3)cnc12 [Example 7] | 178 |
| N#Cc1c(N2CCC(c3ccccc3)CC2)ccn2c(-c3ccccc3)cnc12 [Example 10] | 398 |
| Cc1cc(Oc2ccc(-c3ccn4c(CC(F)(F)F)cnc4c3C#N)cc2)ccn1 [Example 13] | 589 |
| Cc1cc(Oc2ccc(-c3ccn4c(CC(F)(F)F)cnc4c3C#N)cc2F)ccn1 [Example 17] | 1120 |
| CCc1cnc2c(C#N)c(-c3ccc(Oc4ccnc(C)c4)cc3)ccn12 [Example 18] | 1320 |
| N#Cc1c(CN2CCC(c3ccccc3)CC2)ccn2c(CC(F)(F)F)cnc12 [Example 27] | 295 |
| N#Cc1c(N2CCC(c3ccccc3)CC2)ccn2c(C(F)(F)F)cnc12 [Example 29, 7-(4-Phenyl-piperidin-1-yl)-3-trifluoromethyl-imidazo[1,2-a]pyridine-8-carbonitrile] | 776 |
| N#Cc1c(CN2CCN(c3ccc(F)cc3F)CC2)ccn2c(CC(F)(F)F)cnc12 [Example 39] | 1380 |
| FC(F)(F)Cc1cnc2c(Cl)c(CN3CCC(c4ccccc4)CC3)ccn12 [Example 42] | 562 |
| N#Cc1c(N2CCC(c3ccccc3)CC2)ccn2c(C3CC3)cnc12 [Example 49] | 676 |
| N#Cc1c(N2CCN(c3ccc(F)cc3F)CC2)ccn2c(CC(F)(F)F)cnc12 [Example 52] | 275 |
| Cc1cccnc1N1CCN(c2ccn3c(CC(F)(F)F)cnc3c2C#N)CC1 [Example 53] | 1350 |
| Cc1cnc(N2CCN(c3ccn4c(CC(F)(F)F)cnc4c3C#N)CC2)nc1 [Example 56] | 646 |

| Structure (SMILES) | EC50 [nM] |
| --- | --- |
| N#Cc1c(N2CCC(c3ccc(N4CCOCC4)cc3)CC2)ccn2c(CC(F)(F)F)cnc12 [Example 57] | 479 |
| CC(O)c1ccc(C2CCN(c3ccn4c(CC(F)(F)F)cnc4c3C#N)CC2)cc1 (stereo not shown) [Example 59] | 372 |
| Cc1ccnc(N2CCN(c3ccn4c(CC(F)(F)F)cnc4c3C#N)CC2)n1 [Example 60] | 525 |
| COc1c(F)cccc1C1CCN(c2ccn3c(CC(F)(F)F)cnc3c2C#N)CC1 [Example 61, 7-[4-(3-Fluoro-2-methoxy-phenyl)-piperidin-1-yl]-3-(2,2,2-trifluoro-ethyl)-imidazo[1,2-a]pyridine-8-carbonitrile] | 37.2 |
| COc1cccc(F)c1C1CCN(c2ccn3c(CC(F)(F)F)cnc3c2C#N)CC1 [Example 69] | 9.77 |
| Fc1ccc(Oc2ccc(-c3ccn4c(CC(F)(F)F)cnc4c3Cl)cc2)cc1 [Example 70] | 269 |
| N#Cc1c(-c2ccc(C(F)(F)c3ccccc3)cc2)ccn2c(CC(F)(F)F)cnc12 [Example 72] | 214 |
| N#Cc1c(-c2ccc(Oc3ccccc3)c(F)c2)ccn2c(CC(F)(F)F)cnc12 [Example 76] | 269 |
| N#Cc1c(-c2ccc(Oc3ccc(C(=O)O)cc3)cc2)ccn2c(CC(F)(F)F)cnc12 [Example 83] | 676 |
| N#Cc1c(-c2ccc(OC3CCCC3)c(Cl)c2)ccn2c(CC(F)(F)F)cnc12 [Example 84] | 302 |
| CC(C)(O)COc1ccc(-c2ccn3c(CC(F)(F)F)cnc3c2C#N)cc1Cl [Example 86] | 3160 |
| CC(C)Oc1ccc(-c2ccn3c(CC(F)(F)F)cnc3c2C#N)cc1Cl [Example 87] | 309 |
| N#Cc1c(-c2ccc(OC3CCOCC3)c(Cl)c2)ccn2c(CC(F)(F)F)cnc12 [Example 90] | 676 |
| N#Cc1c(-c2ccc(N[C@H]3CC[C@@H](O)CC3)c(Cl)c2)ccn2c(CC(F)(F)F)cnc12 [Example 95, (cis)-7-[3-Chloro-4-(4-hydroxy-cyclohexylamino)-phenyl]-3-(2,2,2-trifluoro-ethyl)-imidazo[1,2-a]pyridine-8-carbonitrile] | 186 |
| C[C@]1(O)CC[C@H](Oc2ccc(-c3ccn4c(CC(F)(F)F)cnc4c3C#N)cc2Cl)CC1 [Example 97] | 603 |

Second part, the molecule after the results:

| EC50 [nM] | Structure (SMILES) |
| --- | --- |
| 490 | CC1(O)CCC(Nc2ccc(-c3ccn4c(CC(F)(F)F)cnc4c3Cl)cc2Cl)CC1 (stereo not shown) [Example 98, 4-{2-Chloro-4-[8-chloro-3-(2,2,2-trifluoro-ethyl)-imidazo[1,2-a]pyridin-7-yl]-phenylamino}-1-methyl-cyclohexanol] |
| 851 | N#Cc1c(-c2ccc(O[C@H]3CC[C@H](O)CC3)c(Cl)c2)ccn2c(CC(F)(F)F)cnc12 [Example 102] |
| 1050 | C[C@]1(O)CC[C@@H](Oc2ccc(-c3ccn4c(CC(F)(F)F)cnc4c3C#N)cc2Cl)CC1 [Example 104] |
| 6310 | N#Cc1c(-c2ccc(NC3CC3)c(F)c2)ccn2c(CC(F)(F)F)cnc12 [Example 106] |
| 457 | N#Cc1c(-c2ccc(N3CCCC3)c(Cl)c2)ccn2c(CC(F)(F)F)cnc12 [Example 108] |
| 275 | FC(F)(F)Cc1cnc2c(Cl)c(-c3ccc(N4CCCCC4)cc3)ccn12 [Example 109] |
| 1050 | N#Cc1c(-c2ccc(N3CCC(O)CC3)cc2)ccn2c(CC(F)(F)F)cnc12 [Example 111] |
| 155 | N#Cc1c(-c2ccc(COc3ccccc3F)cc2)ccn2c(CC(F)(F)F)cnc12 [Example 113] |
| 692 | N#Cc1c(N2CCc3c([nH]c4ccccc34)C2)ccn2c(CC(F)(F)F)cnc12 [Example 117] |
| 63.1 | N#Cc1c(N2CCC(c3ccccc3CCF)CC2)ccn2c(CC(F)(F)F)cnc12 [Example 118] |
| 57.5 | N#Cc1c(N2CCC(c3cccc(F)c3OCCF)CC2)ccn2c(CC(F)(F)F)cnc12 [Example 119] |
| 2090 | N#Cc1c(N2CCC(c3ccccc3)(N3CCOCC3)CC2)ccn2c(CC(F)(F)F)cnc12 [Example 121] |
| 550 | N#Cc1c(N2CCC([C@H]3CC[C@H](O)CC3)CC2)ccn2c(CC(F)(F)F)cnc12 [Example 122] |
| 794 | FC(F)(F)Cc1cnc2c(Cl)c(CN3CCC4(CC3)COc3ccccc3O4)ccn12 [Example 124] |
| 1780 | FC(F)(F)Cc1cnc2c(Cl)c(N3CCC4(CC3)CN(c3ccccc3)C4)ccn12 [Example 125] |
